Columns and labels:
Phytophthora infestans = assay: whole plant or invertebrate; format: in vivo; conditions: in Solanum lycopersicum, foliar, 96 h, read-out: control of fungal infection, Phytophthora infestans
Plasmopara viticola = assay: Leaf disk assay, Plasmopara viticola (downy mildew of grapevine), preventive; format: in vivo; conditions: foliar, 168 h, grapevine leaf disks, assessed seven days after inoculation, read-out: control of fungal infection, Plasmopara viticola
[1] = test system: Erysiphe graminis f.sp. tritici; assay: Leaf disk assay, Erysiphe graminis f.sp. tritici (wheat powdery mildew), preventive; format: in vivo; conditions: Blumeria graminis, foliar, 96 h, wheat leaf segments, assessed four days after inoculation, read-out: control of fungal infection, Erysiphe graminis f.sp. tritici
How it was run: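 Preventive protocol: compound at 200 ppm in water (from DMSO) sprayed onto wheat leaf segments on agar, dried 12–24 h, then spore-inoculated. Fungicidal activity was assessed four days post-inoculation.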

[2] = test system: Puccinia recondita f.sp. tritici; assay: Leaf disk assay, Puccinia recondita f.sp. tritici (wheat brown rust), preventive; format: in vivo; conditions: foliar, 216 h, wheat leaf segments, assessed nine days after inoculation, read-out: control of fungal infection, Puccinia recondita f.sp. tritici
Pyrenophora teres = assay: Leaf disk assay, Pyrenophora teres (barley net blotch), preventive; format: in vivo; conditions: foliar, 96 h, barley leaf segments, assessed four days after inoculation, read-out: control of fungal infection, Pyrenophora teres
Protocol: The compounds were tested in a leaf disk assay, with methods described below. The test compounds were dissolved in DMSO and diluted into water to 200 ppm. In the case of the test on Pythium ultimum, they were dissolved in DMSO and diluted into water to 20 ppm. Pyrenophora teres (barley net blotch): Barley leaf segments were placed on agar in a 24-well plate and sprayed with a solution of the test compound. After allowing to dry completely, for between 12 and 24 hours, the leaf disks were inoculated with a spore suspension of the fungus. After appropriate incubation the activity of a compound was assessed four days after inoculation as preventive fungicidal activity.

Septoria nodorum = assay: Leaf disk assay, Septoria nodorum (wheat glume blotch), preventive; format: in vivo; conditions: Parastagonospora nodorum, foliar, 96 h, wheat leaf segments, assessed four days after inoculation, read-out: control of fungal infection, Septoria nodorum
Septoria tritici = assay: Growth inhibition in nutrient broth, Septoria tritici (leaf blotch), photometric; format: cell-based; conditions: Zymoseptoria tritici, PDB broth, 24 C, 72 hrs, read-out: control of fungal infection, Septoria tritici
Fusarium culmorum = assay: Growth inhibition in nutrient broth, Fusarium culmorum (root rot), photometric; format: cell-based; conditions: 48 h, read-out: control of fungal infection, Fusarium culmorum
Protocol: The compounds were tested in a leaf disk assay, with methods described below. The test compounds were dissolved in DMSO and diluted into water to 200 ppm. In the case of the test on Pythium ultimum, they were dissolved in DMSO and diluted into water to 20 ppm.
Fusarium culmorum (root rot): Conidia of the fungus from cryogenic storage were directly mixed into nutrient broth (PDB potato dextrose broth). After placing a (DMSO) solution of the test compounds into a microtiter plate (96-well format) the nutrient broth containing the fungal spores was added. The test plates were incubated at 24 C and the inhibition of growth was determined photometrically after 48 hrs.

Pythium ultimum = assay: Growth inhibition in potato dextrose broth, Pythium ultimum (damping off), photometric; format: cell-based; conditions: Globisporangium ultimum, 24° C., 48 hours, read-out: control of fungal infection, Pythium ultimum
How it was run: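 Growth inhibition was read photometrically at 48 hours after incubation at 24° C. Test compound was diluted from DMSO to 20 ppm in water and combined with potato dextrose broth seeded with Pythium ultimum mycelial fragments.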

C#Cc1cnc2c(Cl)cc(OC(SC)C(=O)NC(C)(C)C)cc2c1 (centres unmarked) [Example 18]
≥ 60%: pest or weed control at 200 ppm (Phytophthora infestans) | pest or weed control at 200 ppm (Plasmopara viticola) | pest or weed control at 200 ppm [1] | pest or weed control at 200 ppm [2] | pest or weed control at 200 ppm (Pyrenophora teres) | pest or weed control at 200 ppm (Septoria nodorum) | inhibition of growth at 60 ppm (Septoria tritici) | inhibition of growth at 60 ppm (Fusarium culmorum) | inhibition of growth at 20 ppm (Pythium ultimum)

C#Cc1cnc2c(Cl)cc(OC(SC)C(=O)NC(C)(C)C#C)cc2c1 (centres unmarked) [Example 19]
≥ 60%: pest or weed control at 200 ppm (Phytophthora infestans) | pest or weed control at 200 ppm (Plasmopara viticola) | pest or weed control at 200 ppm [1] | pest or weed control at 200 ppm [2] | pest or weed control at 200 ppm (Pyrenophora teres) | pest or weed control at 200 ppm (Septoria nodorum)

C#Cc1cnc2c(Cl)cc(OC(SC)C(=O)NC(C)(C)C#CCOC)cc2c1 (centres unmarked) [Example 62]
≥ 60%: pest or weed control at 200 ppm (Phytophthora infestans) | pest or weed control at 200 ppm (Plasmopara viticola) | pest or weed control at 200 ppm [1] | pest or weed control at 200 ppm [2] | pest or weed control at 200 ppm (Pyrenophora teres) | pest or weed control at 200 ppm (Septoria nodorum) | inhibition of growth at 60 ppm (Septoria tritici)

C#Cc1cnc2c(C)cc(OC(SC)C(=O)NC(C)(C)COCOC)cc2c1 (centres unmarked) [Example 68]
≥ 60%: pest or weed control at 200 ppm (Phytophthora infestans) | pest or weed control at 200 ppm (Plasmopara viticola) | pest or weed control at 200 ppm [1] | pest or weed control at 200 ppm [2] | pest or weed control at 200 ppm (Pyrenophora teres) | pest or weed control at 200 ppm (Septoria nodorum) | inhibition of growth at 60 ppm (Septoria tritici)

C#Cc1cnc2c(Cl)cc(OC(SC)C(=O)NC(C)(C)COC)cc2c1 (centres unmarked) [Example 74]
≥ 60%: pest or weed control at 200 ppm (Phytophthora infestans) | pest or weed control at 200 ppm (Plasmopara viticola) | pest or weed control at 200 ppm [1] | pest or weed control at 200 ppm [2] | pest or weed control at 200 ppm (Pyrenophora teres) | pest or weed control at 200 ppm (Septoria nodorum) | inhibition of growth at 60 ppm (Septoria tritici) | inhibition of growth at 20 ppm (Pythium ultimum)

C#CCOCC(C)(C)NC(=O)C(Oc1cc(Cl)c2ncc(C#C)cc2c1)SC (centres unmarked) [Example 76]
≥ 60%: pest or weed control at 200 ppm (Phytophthora infestans) | pest or weed control at 200 ppm (Plasmopara viticola) | pest or weed control at 200 ppm [1] | pest or weed control at 200 ppm [2] | pest or weed control at 200 ppm (Pyrenophora teres) | pest or weed control at 200 ppm (Septoria nodorum) | inhibition of growth at 60 ppm (Septoria tritici) | inhibition of growth at 20 ppm (Pythium ultimum)

C#Cc1cnc2ccc(OC(SC)C(=O)NC(C)(C)C#N)cc2c1 (centres unmarked) [Example 82]
≥ 60%: pest or weed control at 200 ppm (Phytophthora infestans) | pest or weed control at 200 ppm (Plasmopara viticola) | pest or weed control at 200 ppm [1] | pest or weed control at 200 ppm [2] | pest or weed control at 200 ppm (Pyrenophora teres) | pest or weed control at 200 ppm (Septoria nodorum) | inhibition of growth at 60 ppm (Septoria tritici) | inhibition of growth at 20 ppm (Pythium ultimum)

C#Cc1cnc2c(C)cc(OC(SC)C(=O)NC(C)(C)COCC)cc2c1 (centres unmarked) [Example 95]
≥ 60%: pest or weed control at 200 ppm (Phytophthora infestans) | pest or weed control at 200 ppm (Plasmopara viticola) | pest or weed control at 200 ppm [1] | pest or weed control at 200 ppm [2] | pest or weed control at 200 ppm (Pyrenophora teres) | pest or weed control at 200 ppm (Septoria nodorum) | inhibition of growth at 60 ppm (Septoria tritici) | inhibition of growth at 20 ppm (Pythium ultimum)

C#Cc1cnc2ccc(OC(SC)C(=O)NC(C)(C)CF)cc2c1 (centres unmarked) [Example 99]
≥ 60%: pest or weed control at 200 ppm (Phytophthora infestans) | pest or weed control at 200 ppm (Plasmopara viticola) | pest or weed control at 200 ppm [1] | pest or weed control at 200 ppm [2] | pest or weed control at 200 ppm (Pyrenophora teres) | pest or weed control at 200 ppm (Septoria nodorum) | inhibition of growth at 60 ppm (Septoria tritici) | inhibition of growth at 60 ppm (Fusarium culmorum)

C#Cc1cnc2c(C)cc(OC(SC)C(=O)NC(C)(C#N)CF)cc2c1 (centres unmarked) [Example 102]
≥ 60%: pest or weed control at 200 ppm [2] | pest or weed control at 200 ppm (Pyrenophora teres)

C#Cc1cnc2cc(F)c(OC(SC)C(=O)NC(C)(C)COC)cc2c1 (centres unmarked) [Example 108]
≥ 60%: pest or weed control at 200 ppm (Phytophthora infestans) | pest or weed control at 200 ppm (Plasmopara viticola) | pest or weed control at 200 ppm [1] | pest or weed control at 200 ppm [2] | pest or weed control at 200 ppm (Pyrenophora teres) | pest or weed control at 200 ppm (Septoria nodorum) | inhibition of growth at 60 ppm (Septoria tritici) | inhibition of growth at 60 ppm (Fusarium culmorum)

C#CCOCC(C)(C)NC(=O)C(Oc1cc2cc(C#C)cnc2cc1F)SC (centres unmarked) [Example 109]
≥ 60%: pest or weed control at 200 ppm (Phytophthora infestans) | pest or weed control at 200 ppm (Plasmopara viticola) | pest or weed control at 200 ppm [1] | pest or weed control at 200 ppm [2] | pest or weed control at 200 ppm (Pyrenophora teres) | pest or weed control at 200 ppm (Septoria nodorum) | inhibition of growth at 60 ppm (Septoria tritici) | inhibition of growth at 60 ppm (Fusarium culmorum)

C#Cc1cnc2c(C)cc(OC(CC)C(=O)NC(C)(C)C#CC)cc2c1 (centres unmarked) [Example 113]
≥ 60%: pest or weed control at 200 ppm (Phytophthora infestans) | pest or weed control at 200 ppm (Plasmopara viticola) | pest or weed control at 200 ppm [1] | pest or weed control at 200 ppm [2] | pest or weed control at 200 ppm (Pyrenophora teres) | pest or weed control at 200 ppm (Septoria nodorum) | inhibition of growth at 60 ppm (Septoria tritici)

C#Cc1cnc2c(C)cc(OC(CC)C(=O)NC(C)(C)C#C)cc2c1 (centres unmarked) [Example 114]
≥ 60%: pest or weed control at 200 ppm (Phytophthora infestans) | pest or weed control at 200 ppm (Plasmopara viticola) | pest or weed control at 200 ppm [1] | pest or weed control at 200 ppm [2] | pest or weed control at 200 ppm (Pyrenophora teres) | pest or weed control at 200 ppm (Septoria nodorum) | inhibition of growth at 60 ppm (Septoria tritici) | inhibition of growth at 60 ppm (Fusarium culmorum)

C#Cc1cnc2c(C)cc(OC(CC)C(=O)NC(C)(C)C)cc2c1 (centres unmarked) [Example 115]
≥ 60%: pest or weed control at 200 ppm (Phytophthora infestans) | pest or weed control at 200 ppm (Plasmopara viticola) | pest or weed control at 200 ppm [1] | pest or weed control at 200 ppm [2] | pest or weed control at 200 ppm (Pyrenophora teres) | pest or weed control at 200 ppm (Septoria nodorum) | inhibition of growth at 60 ppm (Septoria tritici) | inhibition of growth at 60 ppm (Fusarium culmorum)

C#Cc1cnc2c(Cl)cc(OC(SC)C(=O)NC(C)(C)C#CCC)cc2c1 (centres unmarked) [Example 122]
≥ 60%: pest or weed control at 200 ppm (Phytophthora infestans) | pest or weed control at 200 ppm (Plasmopara viticola) | pest or weed control at 200 ppm [1] | pest or weed control at 200 ppm [2] | pest or weed control at 200 ppm (Pyrenophora teres) | pest or weed control at 200 ppm (Septoria nodorum) | inhibition of growth at 60 ppm (Septoria tritici) | inhibition of growth at 20 ppm (Pythium ultimum)

C#Cc1cnc2ccc(OC(SC)C(=O)NC(C)(C#C)COC)cc2c1 (centres unmarked) [Example 129]
≥ 60%: pest or weed control at 200 ppm (Phytophthora infestans) | pest or weed control at 200 ppm (Plasmopara viticola) | pest or weed control at 200 ppm [1] | pest or weed control at 200 ppm [2] | pest or weed control at 200 ppm (Pyrenophora teres) | pest or weed control at 200 ppm (Septoria nodorum) | inhibition of growth at 60 ppm (Septoria tritici) | inhibition of growth at 20 ppm (Pythium ultimum)

C#Cc1cnc2c(C)cc(OC(SC)C(=O)NC(C)(COC)COC)cc2c1 (centres unmarked) [Example 133]
≥ 60%: pest or weed control at 200 ppm (Phytophthora infestans) | pest or weed control at 200 ppm (Plasmopara viticola) | pest or weed control at 200 ppm [1] | pest or weed control at 200 ppm [2] | pest or weed control at 200 ppm (Pyrenophora teres) | pest or weed control at 200 ppm (Septoria nodorum) | inhibition of growth at 60 ppm (Septoria tritici)

C#Cc1cnc2c(C)cc(OC(SC)C(=O)NC(C)(C#C)COC)cc2c1 (centres unmarked) [Example 135]
≥ 60%: pest or weed control at 200 ppm (Phytophthora infestans) | pest or weed control at 200 ppm (Plasmopara viticola) | pest or weed control at 200 ppm [1] | pest or weed control at 200 ppm [2] | pest or weed control at 200 ppm (Pyrenophora teres) | pest or weed control at 200 ppm (Septoria nodorum) | inhibition of growth at 60 ppm (Septoria tritici) | inhibition of growth at 20 ppm (Pythium ultimum)

CSC(Oc1ccc2ncc(C#CCF)cc2c1)C(=O)NC(C)(C)C (centres unmarked) [Example 144]
≥ 60%: pest or weed control at 200 ppm (Phytophthora infestans) | pest or weed control at 200 ppm (Plasmopara viticola) | pest or weed control at 200 ppm [1] | pest or weed control at 200 ppm (Pyrenophora teres) | pest or weed control at 200 ppm (Septoria nodorum) | inhibition of growth at 60 ppm (Septoria tritici) | inhibition of growth at 60 ppm (Fusarium culmorum) | inhibition of growth at 20 ppm (Pythium ultimum)

C#Cc1cnc2ccc(OC(SC)C(=O)NC3(C)CCC3)cc2c1 (centres unmarked) [Example 202]
≥ 60%: pest or weed control at 200 ppm (Phytophthora infestans) | pest or weed control at 200 ppm (Plasmopara viticola) | pest or weed control at 200 ppm [1] | pest or weed control at 200 ppm [2] | pest or weed control at 200 ppm (Pyrenophora teres) | pest or weed control at 200 ppm (Septoria nodorum) | inhibition of growth at 60 ppm (Septoria tritici) | inhibition of growth at 20 ppm (Pythium ultimum)

C#Cc1cnc2c(Cl)cc(OC(SC)C(=O)NC3(C)CCC3)cc2c1 (centres unmarked) [Example 203]
≥ 60%: pest or weed control at 200 ppm (Phytophthora infestans) | pest or weed control at 200 ppm (Plasmopara viticola) | pest or weed control at 200 ppm [1] | pest or weed control at 200 ppm [2] | pest or weed control at 200 ppm (Pyrenophora teres) | pest or weed control at 200 ppm (Septoria nodorum) | inhibition of growth at 60 ppm (Septoria tritici) | inhibition of growth at 20 ppm (Pythium ultimum)

C#Cc1cnc2c(F)cc(OC(SC)C(=O)NC(C)C)cc2c1 (centres unmarked) [Example 222]
≥ 60%: pest or weed control at 200 ppm (Phytophthora infestans) | pest or weed control at 200 ppm (Plasmopara viticola) | pest or weed control at 200 ppm [1] | pest or weed control at 200 ppm [2] | pest or weed control at 200 ppm (Septoria nodorum) | inhibition of growth at 60 ppm (Septoria tritici) | inhibition of growth at 60 ppm (Fusarium culmorum) | inhibition of growth at 20 ppm (Pythium ultimum)
